This data set is described as follows: passive permeability, PAMPA, ADME assay (AID 1508612). As to conditions: pH 7.4, 30.0 min, 50.0 µM. Background: The PAMPA barrier holds no transporters, so it reflects passive diffusion.

A value given as a limit tells only on which side of the number the result lay.

A word on the Papp: it is the rate of passage across a membrane or cell layer, normalised by area and donor concentration. Low readings indicate poor permeation, high ones ready permeation. Molecule `Fc1ccc(Nc2nc(-c3ccncc3Cl)nc3ccccc23)cc1F` showed a Papp of 72.2 ×10⁻⁶ cm/s.
For `COc1cccc(CNc2ccc(S(=O)(=O)Nc3ccc(C4CCNCC4)cc3)cc2)c1O`, the apparent permeability (Papp) was determined as 1.79 ×10⁻⁶ cm/s. Against the preceding molecule, the Papp is about 40-fold lower.
With `CNc1oc(-c2cccc3ccccc23)nc1C(=O)OC` the figure was > 1000 ×10⁻⁶ cm/s.
`NC1CCC(Nc2nc(Nc3ccc(C(=O)N4CCCCC4)cc3)c3ncn(-c4cccc(F)c4)c3n2)CC1` (centres undefined): the apparent permeability (Papp) amounted to 21.8 ×10⁻⁶ cm/s.
For the molecule `COc1ccc(NC(=O)c2c(C)c(C(C)=O)c(C)n2C)cc1S(=O)(=O)Nc1ccc(Br)cc1`, the apparent permeability coefficient (Papp) was < 1 ×10⁻⁶ cm/s.
For the molecule `COC(=O)c1ccc2c(C(=Nc3ccc(N(C)C(=O)CN4CCN(C)CC4)cc3)c3ccccc3)c(O)[nH]c2c1`, the Papp is 12.5 ×10⁻⁶ cm/s.
With `COCCNc1ncc(-c2cccc(O)c2)c2c1OCC2` the figure was 412 ×10⁻⁶ cm/s; with `NC(=O)C1CCN(c2nc(-c3ccc(OC(F)(F)F)cc3)cs2)CC1`, 104 ×10⁻⁶ cm/s.
Take `Nc1nc2c(s1)C(c1ccccc1)CC(=O)N2` (centres undefined): the Papp came to 19.3 ×10⁻⁶ cm/s. Compared with the last molecule, the Papp is about 5.4-fold lower.
With `Cc1cc(NS(=O)(=O)c2ccc(NC(=O)c3oc4ccccc4c3C)cc2)nc(C)n1` the figure was 282 ×10⁻⁶ cm/s; with `O=C(O)c1ccnc2cc(C(OCCN3CCCCC3)c3ccccc3Cl)[nH]c12` (centres undefined), < 1 ×10⁻⁶ cm/s.
As to `CCOc1ccc(CCNC(=O)c2ccc3ccccc3n2)cc1OCC`, the Papp is > 1000 ×10⁻⁶ cm/s.
In turn, `Cc1cc(-c2nnc3n2CCCCC3)c(C)n1-c1ccncc1` registered an apparent permeability coefficient (Papp) of 24.5 ×10⁻⁶ cm/s.
As for `Cc1ccc(S(=O)(=O)Nc2cnccc2C(=O)Nc2nc(-c3nc4ccccc4s3)cs2)cc1`, the Papp stood at 740 ×10⁻⁶ cm/s.
On to `COc1ccc(NC(=O)c2[nH]c(C)cc2C)cc1S(=O)(=O)Nc1ccc(Br)cc1`, for which the Papp was > 1000 ×10⁻⁶ cm/s.
As to `CCCCOc1ccccc1C(=O)Nc1ccccc1C(=O)Nc1cccc(S(=O)(=O)C(F)(F)F)c1`, the Papp worked out at 5.2 ×10⁻⁶ cm/s.
Molecule `Cc1nc([C@](C)(O)CO)sc1-c1cnc(N)c(O[C@H](C)c2cc(F)ccc2-n2nccn2)c1` had a Papp of 414 ×10⁻⁶ cm/s. Against the preceding molecule, the Papp is about 80-fold higher.
Molecule `Cc1ccc(Cl)cc1NS(=O)(=O)c1cc2c(cc1F)NC(=O)CC2` came in with a Papp of 581 ×10⁻⁶ cm/s.
As for `CC(=O)c1c(C)n(-c2ccccc2)c2ccc(O)cc12`, the Papp came to 779 ×10⁻⁶ cm/s. The Papp values of the last two molecules are within 1.5-fold of each other.
Regarding `O=C(C1CCN(c2nc(-c3ccc(Br)cc3)cs2)CC1)N1CCNCC1`, the apparent permeability (Papp) worked out at 484 ×10⁻⁶ cm/s.
`Cc1ccc(NS(=O)(=O)c2ccc3c(c2)NC(=O)CO3)cc1C` had a Papp of 706 ×10⁻⁶ cm/s.
`CCOc1ccccc1C(=O)Nc1ccncc1C(=O)Nc1cccc(S(=O)(=O)C(F)(F)F)c1` gave a Papp of 99.5 ×10⁻⁶ cm/s.
For `O=C(NC1CCCc2c1[nH]c1c(Cl)cccc21)c1ccc2c(c1)OCO2` (centres undefined), the Papp came to 51 ×10⁻⁶ cm/s.
In turn, `O=C1Nc2ccccc2/C1=C\c1cc(Br)c(O)c(Br)c1` gave a Papp of 50.5 ×10⁻⁶ cm/s.
Consider `Fc1cccc(CN2CCNc3cc(Nc4ccccc4)ncc3C2)c1`, for which the Papp is < 1 ×10⁻⁶ cm/s.
`CC1Oc2cc3c(-c4c(O)cc(O)c5c(O)c6c(cc45)OC(C)C(C)C6=O)c(O)cc(O)c3c(O)c2C(=O)C1C` (centres undefined) registered a Papp of 8.5 ×10⁻⁶ cm/s.
`COc1ccc(-c2cc3nccn3c(Nc3ncccc3C(N)=O)n2)cc1OC` gave a Papp of 26.4 ×10⁻⁶ cm/s.
For `CN1CCN(c2ccc(Nc3nc(-c4ccncc4)nc4ccccc34)cc2F)CC1`, the Papp was > 1000 ×10⁻⁶ cm/s.
As for `NC(=O)C1CCN(c2nc(-c3ccc(Br)cc3)cs2)CC1`, the apparent permeability (Papp) turned out to be 241 ×10⁻⁶ cm/s.
In the case of `COc1ccc(Nc2nc(-c3ccncc3)nc3ccccc23)cc1F`, the Papp was found to be 107 ×10⁻⁶ cm/s.
In the case of `COc1ccc(-c2cc(-c3cccc(NC(C)=O)c3)cn3cncc23)cn1` it was 39 ×10⁻⁶ cm/s; in that of `COc1ccc(NC(=O)c2ccccc2)cc1S(=O)(=O)Nc1ccc(Br)cc1`, 731 ×10⁻⁶ cm/s.
With `COc1ccc(-c2csc(NC(=O)c3ccncc3NS(=O)(=O)c3ccc(C)cc3)n2)cc1`, the Papp was > 1000 ×10⁻⁶ cm/s.
With `CC(C)Oc1cccc(-c2cnc(N3CCC(C(N)=O)CC3)s2)c1` the figure was 810 ×10⁻⁶ cm/s; with `O=C1CCCC2=C1C(c1ncccc1Br)N=C(Nc1nc3ccccc3o1)N2` (centres undefined), 371 ×10⁻⁶ cm/s.
For the molecule `O=C(Cc1ccc(O)cc1)N1CC(CNc2ccccc2)C2(C1)CN(c1ccccc1)C2` (centres undefined), the apparent permeability coefficient (Papp) stood at 197 ×10⁻⁶ cm/s.
Molecule `CC(=O)c1c(C)[nH]c(C(=O)N(C)C)c1C` returned a Papp of 57.4 ×10⁻⁶ cm/s.
Regarding `CCN(CCN(C)C)C(=O)C1CCN(S(=O)(=O)c2c(C)noc2/C=C/c2ccccc2F)CC1`, the apparent permeability (Papp) was > 1000 ×10⁻⁶ cm/s.
`Fc1cc(Nc2nc(-c3ccncc3)nc3ccccc23)ccc1-c1ccc2[nH]ncc2c1` gave a Papp of 42 ×10⁻⁶ cm/s.
For the molecule `O=S(=O)(Nc1nccs1)c1ccc(NCc2cccc3cc[nH]c23)cc1`, the Papp was found to be 2.4 ×10⁻⁶ cm/s.
Take `O=C(Nc1ccc(Cl)cc1)C(NS(=O)(=O)c1cccs1)c1ccccc1` (centres undefined): the Papp is < 1 ×10⁻⁶ cm/s.
In the case of `CC(=O)NCCNC[C@@H]1C=C(C)[C@H](Cc2nnc(-c3ccccc3)o2)C[C@H]1C(C)C`, the Papp was 624 ×10⁻⁶ cm/s.
Consider `CC(C)CC(C)NC(=O)c1noc(-c2ccc[nH]c2=O)n1` (centres undefined), for which the apparent permeability (Papp) worked out at 16.6 ×10⁻⁶ cm/s.
In the case of `COc1ccccc1CNS(=O)(=O)c1ccc(-c2cnc(C3CC3)o2)cc1`, the Papp was > 1000 ×10⁻⁶ cm/s.
In the case of `Cc1noc(C)c1C(=O)N1CCC2(CC1)CCN(C(c1ccccc1)c1ccccc1)CC2`, the apparent permeability (Papp) was > 1000 ×10⁻⁶ cm/s.
With `Cc1cccc(CS(=O)(=O)c2ncc(Cl)c(C(=O)Nc3nc4ccc(F)cc4s3)n2)c1` the figure was 261 ×10⁻⁶ cm/s; with `NS(=O)(=O)c1ccc(Cc2c(-c3cccc(-c4ccccc4)c3)nn(-c3nc(C(=O)O)cs3)c2CC2CC2)cc1`, 3.4 ×10⁻⁶ cm/s.
Turning to `c1ccc2c(Nc3ccon3)nc(-c3ccncc3)nc2c1`, the apparent permeability coefficient (Papp) turned out to be 247 ×10⁻⁶ cm/s.
For the molecule `CCC[C@@H]1CN(C(=O)c2ccc(-c3ccc(C)o3)cc2)C[C@H]1NC(C)=O`, the Papp was > 1000 ×10⁻⁶ cm/s.
`C#CCNC(=O)c1nc(-c2cccnc2)c2ccccn12`: the apparent permeability coefficient (Papp) was found to be 507 ×10⁻⁶ cm/s.
Regarding `N=c1c2c(n(Cc3ccccc3)c3c1CCC3)CCC2`, the apparent permeability coefficient (Papp) was < 1 ×10⁻⁶ cm/s.
The molecule `Cc1ccc(NC(=O)c2cc(-c3ccc[nH]3)n[nH]2)cc1F` had a Papp of 157 ×10⁻⁶ cm/s.
The molecule `CC(=O)c1c(C)[nH]c(C(=O)Nc2cccc(S(=O)(=O)Nc3cccc(C#N)c3)c2)c1C` registered an apparent permeability (Papp) of 68.9 ×10⁻⁶ cm/s.
Turning to `O=C1C(SCCO)=C(SCCO)C(=O)c2ccccc21`, the Papp came to 108 ×10⁻⁶ cm/s.
On to `O=c1cc(-c2ccccc2)oc2cc(O)cc(O)c12`, for which the Papp amounted to 452 ×10⁻⁶ cm/s.
`O=C(Nc1nc(-c2ccccc2)cs1)c1ccccc1-n1cnnn1`: the Papp was < 1 ×10⁻⁶ cm/s.
Molecule `CCOc1ccc(-c2nnc(SCC(=O)NCc3ccccc3Cl)o2)cc1` returned a Papp of 5.1 ×10⁻⁶ cm/s.
In the case of `CCN(c1cc(C#CCN2CCOCC2)cc(C(=O)NCc2c(C)cc(C)[nH]c2=O)c1C)C1CCC(N(C)CCOC)CC1` (centres undefined) it was 6.74 ×10⁻⁶ cm/s.
With `C/C=C1/CN2CC[C@@]34c5ccccc5N(C)[C@@H]3[C@@H]2C[C@@H]1[C@H]4C(=O)OC` the figure was 895 ×10⁻⁶ cm/s; with `O=c1[nH]cnc2nc[nH]c12`, < 1 ×10⁻⁶ cm/s; with `Fc1ccc(Nc2nc(-n3ccnc3)nc3ccccc23)cc1F`, 223 ×10⁻⁶ cm/s.
Turning to `CCOC(=O)N1CCc2c(sc(NCc3sccc3C)c2C(=O)Nc2cc(Cl)ccc2OC)C1`, the apparent permeability (Papp) is < 1 ×10⁻⁶ cm/s.
In the case of `CC(=O)Nc1cccc(-c2nc(-c3c(C)noc3C)cc3c2cc(-c2ccccc2)n3C)c1` it was 455 ×10⁻⁶ cm/s; in that of `O=C(NCCCN1CCCC1=O)c1ccc(-c2ncc3cnc(-c4ccccc4)cn23)cc1`, 292 ×10⁻⁶ cm/s.
With `CCN1CCN(C(=O)c2cc(-c3ccc(F)cc3)c3nncn3n2)CC1`, the Papp was found to be 159 ×10⁻⁶ cm/s.
With `Cc1nn(Cc2ccc(Cl)cc2)c(C)c1NC(=O)c1cc(-c2ccc3c(c2)OCO3)on1`, the Papp is 836 ×10⁻⁶ cm/s.
In turn, `Oc1ccc(CNc2ccc(F)cc2F)c2cccnc12` showed a Papp of 178 ×10⁻⁶ cm/s. Against the preceding molecule, the Papp is about 4.7-fold lower.
Turning to `CCCCN1CCC[C@H]1CNC(=O)c1cc(C#N)c2ccccc2c1OC`, the apparent permeability (Papp) was > 1000 ×10⁻⁶ cm/s.
Take `CCOC(=O)c1nnc(N[S+](=O)([O-])c2ccc(NC(=O)Cc3ccc(Cl)c(Cl)c3)cc2)s1`: the Papp came to 1.1 ×10⁻⁶ cm/s.
In the case of `c1ccc(Nc2nc(NCc3ccco3)c3ccccc3n2)cc1` it was 930 ×10⁻⁶ cm/s; in that of `COc1ccc2nc(C)cc(Nc3ccc(Cl)c(Cl)c3)c2c1`, > 1000 ×10⁻⁶ cm/s; in that of `O=C(O)c1ccc(O)c2ncc(N3CCCN(CCc4cccc5ccccc45)CC3)cc12`, 974 ×10⁻⁶ cm/s.
Molecule `CCc1ccc(S(=O)(=O)Nc2cnccc2C(=O)Nc2nc(-c3ccccc3)cs2)cc1` came in with a Papp of 300 ×10⁻⁶ cm/s.
For `COc1ccc(S(=O)(=O)N2CCCCCC2)cc1NC(=O)Cc1n[nH]c(=O)c2ccccc12`, the Papp was < 1 ×10⁻⁶ cm/s.
In the case of `COc1cccc(S(=O)(=O)Nc2cnccc2C(=O)Nc2nc(-c3ccccc3)cs2)c1`, the Papp amounted to 696 ×10⁻⁶ cm/s.
`Cc1cc(C)nc(NC(=S)N2CCN(c3ccc(Cl)cc3[N+](=O)[O-])CC2)c1`: the Papp was > 1000 ×10⁻⁶ cm/s.
As for `Cc1cnc(-c2ccccc2C2CC2)nc1NCc1ccc(-c2cccnc2)cc1`, the Papp was > 1000 ×10⁻⁶ cm/s.
Take `CC1=C(C(=O)Nc2nncs2)C2(CCCC2)N=C(Nc2nc3ccccc3o2)N1`: the Papp is < 1 ×10⁻⁶ cm/s.
In the case of `O=C(c1ccc2c(c1)ncn2-c1cccc(C(F)(F)F)c1)N1CCCCC1` it was > 1000 ×10⁻⁶ cm/s.
`Cc1nc2ccc(Nc3nc(-c4ccncc4)nc4ccccc34)cc2s1` returned a Papp of 55.8 ×10⁻⁶ cm/s.
In turn, `CNC(=O)C1=C(C)NC(Nc2nc3ccccc3o2)=NC1c1[nH]ncc1Cl` (centres undefined) showed a Papp of 17.6 ×10⁻⁶ cm/s.
As to `Cc1cccc(-n2cnc3cc(C(=O)N4CCCCC4)ccc32)c1`, the apparent permeability coefficient (Papp) was 912 ×10⁻⁶ cm/s.
For `COc1ccccc1CNc1ccc(N2CCCCC2)cc1`, the Papp is > 1000 ×10⁻⁶ cm/s.
On to `COc1ccc(Nc2nnc(-c3ccc(C)c(S(=O)(=O)NCc4nc5ccccc5[nH]4)c3)c3ccccc23)cc1`, for which the Papp was 11.9 ×10⁻⁶ cm/s.
In the case of `Cc1ccc(C(=O)Nc2ccc3oc(-c4cccnc4)nc3c2)cc1[N+](=O)[O-]`, the Papp came out at 82.5 ×10⁻⁶ cm/s.
With `CC1=Nc2cc(C(=O)NCc3ccccc3Cl)ccc2Sc2c(C)ccc(C)c21` the figure was 161 ×10⁻⁶ cm/s; with `COc1cc2ncnc(Nc3ccc(Oc4ccccc4)cc3)c2cc1OC`, > 1000 ×10⁻⁶ cm/s; with `Cc1cc(NS(=O)(=O)c2ccc(NCCc3ccc(Cl)c(Cl)c3)cc2)no1`, 406 ×10⁻⁶ cm/s.
With `CCOC(=O)C1CCN(c2nc(-c3ccc(Br)cc3)cs2)CC1` the figure was 120 ×10⁻⁶ cm/s; with `O=C(c1nc(-c2cccnc2)c2ccccn12)N1CCN(c2ncccn2)CC1`, > 1000 ×10⁻⁶ cm/s; with `O=C(NCCCCc1ccccc1)C1CCN(c2nc(-c3ccc(Br)cc3)cs2)CC1`, 5.3 ×10⁻⁶ cm/s.
On to `NC(CO)(CO)CCc1ccc(Sc2cccc(OCc3ccccc3)c2)cc1Cl`, for which the Papp worked out at 210 ×10⁻⁶ cm/s.
`O=S(=O)(Nc1nccs1)c1ccc(NCc2ccccc2)cc1`: the apparent permeability (Papp) amounted to 320 ×10⁻⁶ cm/s.
Take `COc1cccc(CNc2ccc(S(=O)(=O)Nc3cccc4ccccc34)cc2)c1O`: the Papp is < 1 ×10⁻⁶ cm/s.

(Values after PubChem BioAssay AID1508612.)
